According to ChEMBL document CHEMBL1201862, “PubChem BioAssay data set” (2004):
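Following 48 hours of exposure in 96-well plates, responses at five concentrations were used to interpolate endpoints linearly. GI50 marks 50% less growth.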 Calls of active or inactive are those of the source. Cut-off read from the data, not from the text of the source: active = GI50 up to about 1.1 µM and inactive = higher.

Assays:
Experiment in all cases: NCI anticancer screen, dose series, 48 h
NCI-H460 = system: NCI-H460
NCI-H23 = system: NCI-H23
SF-295 = system: SF-295
OVCAR-8 = system: OVCAR-8
SW-620 = system: SW-620
786-0 = system: 786-0
OVCAR-4 = system: OVCAR-4
SK-OV-3 = system: SK-OV-3
DU-145 = system: DU-145
HOP-62 = system: HOP-62
SF-539 = system: SF-539
UACC-257 = system: UACC-257
LOX IMVI = system: LOX IMVI
CCRF-CEM = system: CCRF-CEM
NCI/ADR-RES = system: NCI/ADR-RES
NCI-H226 = system: NCI-H226
TK-10 = system: TK-10
A498 = system: A498
IGROV-1 = system: IGROV-1
RPMI-8226 = system: RPMI-8226
PC-3 = system: PC-3
U-251 = system: U-251
OVCAR-3 = system: OVCAR-3
SNB-19 = system: SNB-19
UO-31 = system: UO-31
SF-268 = system: SF-268
SK-MEL-28 = system: SK-MEL-28
ACHN = system: ACHN
MDA-MB-231 = system: MDA-MB-231
NCI-H522 = system: NCI-H522
KM12 = system: KM12
MDA-N = system: MDA-N
HL-60 = system: HL-60
T47D = system: T47D
SR = system: SR
A549 = system: A549
HCT-15 = system: HCT-15
K562 = system: K562
Hs-578T = system: Hs-578T
HCT-116 = system: HCT-116
UACC-62 = system: UACC-62
RXF 393 = system: RXF 393
Malme-3M = system: Malme-3M
COLO 205 = system: COLO 205
MCF7 = system: MCF7
BT-549 = system: BT-549
HOP-92 = system: HOP-92
SK-MEL-2 = system: SK-MEL-2
SN12C = system: SN12C
SNB-75 = system: SNB-75
MOLT-4 = system: MOLT-4
EKVX = system: EKVX
M14 = system: M14
MDA-MB-435 = system: MDA-MB-435
CAKI-1 = system: CAKI-1
HT-29 = system: HT-29
OVCAR-5 = system: OVCAR-5
SK-MEL-5 = system: SK-MEL-5
HCC 2998 = system: HCC 2998

SMILES: COC(Cc1ccccc1)NC(C)=O (configuration not stated)
- GI50 (NCI-H460): > 100 µM (inactive)
- GI50 (NCI-H23): > 100 µM (inactive)
- GI50 (SF-295): > 100 µM (inactive)
- GI50 (OVCAR-8): > 100 µM (inactive)
- GI50 (SW-620): > 100 µM (inactive)
- GI50 (786-0): > 100 µM (inactive)
- GI50 (OVCAR-4): > 100 µM (inactive)
- GI50 (SK-OV-3): > 100 µM (inactive)
- GI50 (DU-145): > 100 µM (inactive)
- GI50 (HOP-62): > 100 µM (inactive)
- GI50 (SF-539): > 100 µM (inactive)
- GI50 (UACC-257): > 100 µM (inactive)
- GI50 (LOX IMVI): > 100 µM (inactive)
- GI50 (CCRF-CEM): > 100 µM (inactive)
- GI50 (NCI/ADR-RES): > 100 µM (inactive)
- GI50 (NCI-H226): > 100 µM (inactive)
- GI50 (TK-10): > 100 µM (inactive)
- GI50 (A498): > 100 µM (inactive)
- GI50 (IGROV-1): > 100 µM (inactive)
- GI50 (RPMI-8226): > 100 µM (inactive)
- GI50 (PC-3): > 100 µM (inactive)
- GI50 (U-251): > 100 µM (inactive)
- GI50 (OVCAR-3): > 100 µM (inactive)
- GI50 (SNB-19): > 100 µM (inactive)
- GI50 (UO-31): > 100 µM (inactive)
- GI50 (SF-268): > 100 µM (inactive)
- GI50 (SK-MEL-28): > 100 µM (inactive)
- GI50 (ACHN): > 100 µM (inactive)
- GI50 (MDA-MB-231): > 100 µM (inactive)
- GI50 (NCI-H522): > 100 µM (inactive)
- GI50 (KM12): > 100 µM (inactive)
- GI50 (MDA-N): > 100 µM (inactive)
- GI50 (HL-60): > 100 µM (inactive)
- GI50 (T47D): > 100 µM (inactive)
- GI50 (SR): > 100 µM (inactive)
- GI50 (A549): > 100 µM (inactive)
- GI50 (HCT-15): > 100 µM
- GI50 (K562): > 100 µM (inactive)
- GI50 (Hs-578T): > 100 µM (inactive)
- GI50 (HCT-116): > 100 µM (inactive)
- GI50 (UACC-62): > 100 µM (inactive)
- GI50 (RXF 393): > 100 µM (inactive)
- GI50 (Malme-3M): > 100 µM (inactive)
- GI50 (COLO 205): > 100 µM (inactive)
- GI50 (MCF7): > 100 µM (inactive)
- GI50 (BT-549): > 100 µM (inactive)
- GI50 (HOP-92): > 100 µM (inactive)
- GI50 (SK-MEL-2): > 100 µM (inactive)
- GI50 (SN12C): > 100 µM (inactive)
- GI50 (SNB-75): > 100 µM (inactive)
- GI50 (MOLT-4): > 100 µM (inactive)
- GI50 (EKVX): > 100 µM (inactive)
- GI50 (M14): > 100 µM (inactive)
- GI50 (MDA-MB-435): > 100 µM (inactive)
- GI50 (CAKI-1): > 100 µM (inactive)
- GI50 (HT-29): > 100 µM (inactive)
- GI50 (OVCAR-5): > 100 µM (inactive)
- GI50 (SK-MEL-5): > 100 µM (inactive)
- GI50 (HCC 2998): > 100 µM (inactive)

SMILES: COc1cccc(Nc2nc(N)nc(N)c2N=O)c1
- GI50 (NCI-H460): 13.6 µM (inactive)
- GI50 (NCI-H23): 15.3 µM (inactive)
- GI50 (SF-295): 27 µM (inactive)
- GI50 (OVCAR-8): 16.1 µM (inactive)
- GI50 (SW-620): 31.3 µM (inactive)
- GI50 (786-0): 19 µM (inactive)
- GI50 (OVCAR-4): 31.8 µM (inactive)
- GI50 (SK-OV-3): 29.2 µM (inactive)
- GI50 (DU-145): 13.2 µM (inactive)
- GI50 (HOP-62): 28.8 µM (inactive)
- GI50 (SF-539): 15.3 µM (inactive)
- GI50 (UACC-257): 21.3 µM (inactive)
- GI50 (LOX IMVI): 15.1 µM (inactive)
- GI50 (CCRF-CEM): 23.2 µM (inactive)
- GI50 (NCI/ADR-RES): 17.1 µM (inactive)
- GI50 (NCI-H226): 22.5 µM (inactive)
- GI50 (TK-10): 19.8 µM (inactive)
- GI50 (A498): 21.7 µM (inactive)
- GI50 (IGROV-1): 2.38 µM (inactive)
- GI50 (RPMI-8226): 16.9 µM (inactive)
- GI50 (PC-3): 10.2 µM (inactive)
- GI50 (U-251): 31.8 µM (inactive)
- GI50 (OVCAR-3): 15.6 µM (inactive)
- GI50 (SNB-19): 38.6 µM (inactive)
- GI50 (UO-31): 9.4 µM (inactive)
- GI50 (SF-268): 14.7 µM (inactive)
- GI50 (SK-MEL-28): 22 µM (inactive)
- GI50 (ACHN): 17.3 µM (inactive)
- GI50 (MDA-MB-231): 28.5 µM (inactive)
- GI50 (NCI-H522): 8.65 µM (inactive)
- GI50 (KM12): 29.1 µM (inactive)
- GI50 (MDA-N): 30.8 µM (inactive)
- GI50 (HL-60): 19.1 µM (inactive)
- GI50 (T47D): 2.12 µM (inactive)
- GI50 (SR): 18.5 µM (inactive)
- GI50 (A549): 31 µM (inactive)
- GI50 (HCT-15): 22 µM
- GI50 (K562): 31.3 µM (inactive)
- GI50 (Hs-578T): 14.5 µM (inactive)
- GI50 (HCT-116): 18.4 µM (inactive)
- GI50 (UACC-62): 15.5 µM (inactive)
- GI50 (RXF 393): 28.6 µM (inactive)
- GI50 (Malme-3M): 29.2 µM (inactive)
- GI50 (COLO 205): 24.4 µM (inactive)
- GI50 (MCF7): 3.8 µM (inactive)
- GI50 (BT-549): 28 µM (inactive)
- GI50 (HOP-92): 7.14 µM (inactive)
- GI50 (SK-MEL-2): 31 µM (inactive)
- GI50 (SN12C): 17.8 µM (inactive)
- GI50 (SNB-75): 10.8 µM (inactive)
- GI50 (MOLT-4): 7.24 µM (inactive)
- GI50 (EKVX): 19.4 µM (inactive)
- GI50 (M14): 30.8 µM (inactive)
- GI50 (MDA-MB-435): 16.9 µM (inactive)
- GI50 (CAKI-1): 11.3 µM (inactive)
- GI50 (HT-29): 21.8 µM (inactive)
- GI50 (OVCAR-5): 37.8 µM (inactive)
- GI50 (SK-MEL-5): 18.7 µM (inactive)
- GI50 (HCC 2998): 17.4 µM (inactive)

SMILES: Cn1ccnc1Sc1ccc(/C=N/NC(=O)c2ccccc2[N+](=O)[O-])cc1[N+](=O)[O-]
- GI50 (NCI-H460): 46.5 µM (inactive)
- GI50 (NCI-H23): 58.6 µM (inactive)
- GI50 (SF-295): 83.8 µM (inactive)
- GI50 (OVCAR-8): > 100 µM (inactive)
- GI50 (SW-620): 98.2 µM (inactive)
- GI50 (786-0): 68.9 µM (inactive)
- GI50 (OVCAR-4): 57.8 µM (inactive)
- GI50 (SK-OV-3): > 100 µM (inactive)
- GI50 (DU-145): 66.7 µM (inactive)
- GI50 (HOP-62): > 100 µM (inactive)
- GI50 (SF-539): > 100 µM (inactive)
- GI50 (UACC-257): 87.5 µM (inactive)
- GI50 (LOX IMVI): 37.3 µM (inactive)
- GI50 (CCRF-CEM): 42.7 µM (inactive)
- GI50 (NCI/ADR-RES): > 100 µM (inactive)
- GI50 (NCI-H226): > 100 µM (inactive)
- GI50 (TK-10): 65.3 µM (inactive)
- GI50 (A498): 58.9 µM (inactive)
- GI50 (IGROV-1): 37.4 µM (inactive)
- GI50 (RPMI-8226): 38.7 µM (inactive)
- GI50 (PC-3): 76 µM (inactive)
- GI50 (U-251): > 100 µM (inactive)
- GI50 (OVCAR-3): 98.9 µM (inactive)
- GI50 (SNB-19): > 100 µM (inactive)
- GI50 (UO-31): 89.1 µM (inactive)
- GI50 (SF-268): > 100 µM (inactive)
- GI50 (SK-MEL-28): > 100 µM (inactive)
- GI50 (ACHN): 70.1 µM (inactive)
- GI50 (MDA-MB-231): 23.1 µM (inactive)
- GI50 (NCI-H522): 38.5 µM (inactive)
- GI50 (KM12): 49.9 µM (inactive)
- GI50 (MDA-N): 89.1 µM (inactive)
- GI50 (HL-60): 47.1 µM (inactive)
- GI50 (T47D): 40.6 µM (inactive)
- GI50 (SR): 36.1 µM (inactive)
- GI50 (A549): > 100 µM (inactive)
- GI50 (HCT-15): 45.7 µM
- GI50 (K562): 40.5 µM (inactive)
- GI50 (Hs-578T): > 100 µM (inactive)
- GI50 (HCT-116): 65.6 µM (inactive)
- GI50 (UACC-62): 64.3 µM (inactive)
- GI50 (RXF 393): 52.5 µM (inactive)
- GI50 (Malme-3M): 54.6 µM (inactive)
- GI50 (COLO 205): 56.2 µM (inactive)
- GI50 (MCF7): 59.8 µM (inactive)
- GI50 (BT-549): 83.9 µM (inactive)
- GI50 (HOP-92): 18 µM (inactive)
- GI50 (SK-MEL-2): 29 µM (inactive)
- GI50 (SN12C): 60.3 µM (inactive)
- GI50 (SNB-75): > 100 µM (inactive)
- GI50 (MOLT-4): 41.2 µM (inactive)
- GI50 (EKVX): 40.9 µM (inactive)
- GI50 (M14): > 100 µM (inactive)
- GI50 (MDA-MB-435): 66.7 µM (inactive)
- GI50 (CAKI-1): 49.8 µM (inactive)
- GI50 (HT-29): 35.6 µM (inactive)
- GI50 (OVCAR-5): > 100 µM (inactive)
- GI50 (SK-MEL-5): 46.1 µM (inactive)
- GI50 (HCC 2998): 36.7 µM (inactive)
